From ChEMBL document CHEMBL6127095, “Isoxazole compounds: Unveiling the synthetic strategy, in-silico SAR & toxicity studies and future perspective as PARP inhibitor in cancer therapy” (Eur J Med Chem, 2024)
Converted amounts (≈) assume the structure as drawn. Where a name gives a salt, the structure may show the parent alone.

Key:
MDA-MB-231 [1] = assay: Growth inhibition of human MDA-MB-231 cells; assay type: functional
MDA-MB-231 [2] = assay: Anticancer activity against human MDA-MB-231 cells assessed as reduction in cell viability measured for 48 hrs by MTT assay; assay type: functional, cell-based; conditions: MDA-MB-231, 48 h
MCF7 [3] = assay: Antitumor activity against human MCF7 cells xenografted in BALB/c nude mouse assessed as tumor growth inhibition at 30 mg/kg, iv administered for 15 days; assay type: functional; set-up: scale not given: the % may be the effect or the level left; conditions: time 15 day
[4] = Toxicity in mouse assessed as lethal dose; conditions: in vivo
K562 = assay: Antiproliferative activity against human K562 cells assessed as reduction in cell viability after 72 hrs by MTT assay; assay type: functional, cell-based; conditions: K562, 72 h
MCF7 [5] = assay: Antiproliferative activity against human MCF7 cells assessed as reduction in cell viability incubated for 48 hrs by MTT assay; assay type: functional, cell-based; conditions: MCF7, 48 h
[6] = target: Epidermal growth factor receptor (Homo sapiens, UniProt P00533); assay: Inhibition of EGFR (unknown origin) using TK as substrate incubated for 30 mins by HTRF assay
PC-3 [7] = assay: Antiproliferative activity against human PC-3 cells assessed as reduction in cell viability incubated for 24 hrs by MTT assay; assay type: functional, cell-based; conditions: PC-3, 24 h
DU-145 = assay: Antiproliferative activity against human DU-145 cells assessed as reduction in cell viability by MTT assay; assay type: functional, cell-based
HepG2 = assay: Antiproliferative activity against human HepG2 cells assessed as reduction in cell viability after 24 hrs by MTT assay; assay type: functional, cell-based; conditions: HepG2, 24 h
MCF7 [8] = assay: Anticancer activity against human MCF7 cells assessed as inhibition of cell growth incubated for 24 hrs by MTT assay; assay type: functional, cell-based; conditions: MCF7, 24 h
4T1 = assay: Cytotoxicity against mouse 4T1 cells assessed as inhibition of cell proliferation incubated for 72 hrs by MTT assay; assay type: functional, cell-based; conditions: 4T1, 72 h
PC-3 [9] = assay: Anticancer activity against human PC-3 cells assessed as inhibition of cell growth incubated for 24 hrs by MTT assay; assay type: functional, cell-based; conditions: PC-3, 24 h
Huh-7 = assay: Antiproliferative activity against human Huh-7 cells assessed as reduction in cell growth; assay type: functional, cell-based
Heat shock protein HSP90 = Heat shock protein HSP90 (Homo sapiens, UniProt P07900+P08238); assay: Inhibition of HSP90 (unknown origin) ATPase activity; assay type: protein assay
[10] = target: Poly [ADP-ribose] polymerase 1 (Homo sapiens, UniProt P09874); assay: Inhibition of PARP-1 (unknown origin)
PC-3 [11] = assay: Growth inhibition of human PC-3 cells measured for 48 hrs by SRB assay; assay type: functional
MCF7 [12] = assay: Growth inhibition of human MCF7 cells incubated fro 48 hrs by SRB assay; assay type: functional

Sequence of Poly [ADP-ribose] polymerase 1 (P09874 whole entry): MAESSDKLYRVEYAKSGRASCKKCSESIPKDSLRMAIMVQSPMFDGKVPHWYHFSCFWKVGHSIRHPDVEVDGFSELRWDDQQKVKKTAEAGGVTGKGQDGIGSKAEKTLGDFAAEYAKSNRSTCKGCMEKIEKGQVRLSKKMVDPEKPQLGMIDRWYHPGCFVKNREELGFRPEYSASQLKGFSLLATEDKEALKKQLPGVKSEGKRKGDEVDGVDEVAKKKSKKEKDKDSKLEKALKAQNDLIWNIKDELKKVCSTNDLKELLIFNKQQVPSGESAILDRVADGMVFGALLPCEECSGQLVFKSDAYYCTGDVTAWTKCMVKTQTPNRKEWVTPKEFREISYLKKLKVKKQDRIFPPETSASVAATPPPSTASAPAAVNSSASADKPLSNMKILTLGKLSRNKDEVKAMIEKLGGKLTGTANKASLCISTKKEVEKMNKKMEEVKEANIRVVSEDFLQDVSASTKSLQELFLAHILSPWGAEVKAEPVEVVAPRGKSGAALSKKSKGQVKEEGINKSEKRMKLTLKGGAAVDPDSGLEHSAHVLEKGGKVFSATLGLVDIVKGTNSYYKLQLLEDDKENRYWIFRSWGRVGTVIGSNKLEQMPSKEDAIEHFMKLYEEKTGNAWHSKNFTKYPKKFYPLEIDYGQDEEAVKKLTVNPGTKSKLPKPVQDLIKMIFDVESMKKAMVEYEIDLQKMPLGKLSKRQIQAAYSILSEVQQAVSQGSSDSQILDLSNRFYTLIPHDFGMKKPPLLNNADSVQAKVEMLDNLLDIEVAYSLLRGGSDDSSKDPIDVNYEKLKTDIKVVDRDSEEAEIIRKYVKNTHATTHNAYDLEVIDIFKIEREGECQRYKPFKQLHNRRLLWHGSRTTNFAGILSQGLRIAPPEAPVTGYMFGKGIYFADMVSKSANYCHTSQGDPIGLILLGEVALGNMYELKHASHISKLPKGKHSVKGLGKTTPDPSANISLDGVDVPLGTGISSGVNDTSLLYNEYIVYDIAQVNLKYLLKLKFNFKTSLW
Sequence of Epidermal growth factor receptor (P00533 whole entry): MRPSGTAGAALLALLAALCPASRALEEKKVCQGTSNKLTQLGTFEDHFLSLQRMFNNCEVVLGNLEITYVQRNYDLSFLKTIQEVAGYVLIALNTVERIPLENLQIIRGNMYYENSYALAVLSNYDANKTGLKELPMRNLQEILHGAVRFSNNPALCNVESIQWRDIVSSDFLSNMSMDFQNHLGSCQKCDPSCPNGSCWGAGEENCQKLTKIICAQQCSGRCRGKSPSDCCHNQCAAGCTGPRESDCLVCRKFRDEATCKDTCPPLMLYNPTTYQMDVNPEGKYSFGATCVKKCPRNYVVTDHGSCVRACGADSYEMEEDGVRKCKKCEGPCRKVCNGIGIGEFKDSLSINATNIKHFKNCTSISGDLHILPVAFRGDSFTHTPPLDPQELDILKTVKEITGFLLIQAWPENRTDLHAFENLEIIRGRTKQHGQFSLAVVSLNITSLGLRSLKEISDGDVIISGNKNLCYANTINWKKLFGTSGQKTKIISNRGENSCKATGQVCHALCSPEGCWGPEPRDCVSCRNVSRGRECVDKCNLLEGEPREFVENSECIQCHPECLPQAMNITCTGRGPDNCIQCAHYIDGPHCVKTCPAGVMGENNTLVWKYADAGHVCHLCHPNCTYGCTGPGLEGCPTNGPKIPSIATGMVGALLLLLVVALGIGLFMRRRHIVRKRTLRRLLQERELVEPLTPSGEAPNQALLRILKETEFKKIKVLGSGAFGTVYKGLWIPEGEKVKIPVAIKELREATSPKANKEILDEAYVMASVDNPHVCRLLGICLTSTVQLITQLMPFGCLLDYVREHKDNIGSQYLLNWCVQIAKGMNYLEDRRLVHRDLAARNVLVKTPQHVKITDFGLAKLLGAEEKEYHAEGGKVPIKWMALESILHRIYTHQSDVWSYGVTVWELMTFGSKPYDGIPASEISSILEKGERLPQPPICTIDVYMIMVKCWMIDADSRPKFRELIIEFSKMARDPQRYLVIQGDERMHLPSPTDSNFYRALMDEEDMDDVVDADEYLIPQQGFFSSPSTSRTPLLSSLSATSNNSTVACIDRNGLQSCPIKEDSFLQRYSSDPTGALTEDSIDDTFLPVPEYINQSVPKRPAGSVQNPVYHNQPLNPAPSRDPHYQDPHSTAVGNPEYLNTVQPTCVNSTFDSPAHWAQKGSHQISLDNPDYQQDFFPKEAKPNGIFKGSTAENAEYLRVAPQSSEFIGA

With CCc1cc(-c2oncc2-c2ccc(OC)cc2)c(O)cc1OC as the compound, how does the GI50 (MDA-MB-231 [1]) read?
Its GI50 is 25000 nM.

And the IC50 (MDA-MB-231 [2])?
The IC50 was 100 nM.

For CC(=O)c1c(O)c(C)c(O)c2c1OC1=Cc3onc(C)c3C(=O)[C@@]12C, which Activity (MCF7 [3]) is on record?
The Activity was 80%.

For Cc1cc(C[C@@H]2C[C@H]3C(=O)N(C)C4(C[C@H](C)CC[C@H]4C(C)C)N3O2)c(O)c(-n2nc3ccccc3n2)c1 (stereo partly drawn), which LD50 [4] is on record?
The LD50 was 1000 mg/kg.

With Cc1noc(C)c1-c1cc(Cc2n[nH]c(=O)c3ccccc23)cc(NC(=O)c2ccccc2C(F)(F)F)c1 as the compound, how does the LD50 [4] read?
The LD50 was 500 mg/kg.

With Cc1onc([C@@H]2CN(C)C3(C(=O)c4ccccc4C3=O)[C@@]23C(=O)N(C)c2cc(Br)ccc23)c1[N+](=O)[O-] as the compound, how does the IC50 (K562) read?
Its IC50 is 20300 nM.

For COc1c(Cl)cc(-c2noc(-c3cn(Cc4cc(-c5cc(Cl)cc(Cl)c5)no4)c4ccccc34)n2)cc1Cl, which IC50 (MCF7 [5]) is on record?
Its IC50 is 2160 nM.

What about the IC50 [6] of the same compound?
Its IC50 is 200 nM.

For COc1cc(-c2nnc(-c3cncc(-c4cc(-c5nccs5)on4)c3)o2)cc(OC)c1OC, which IC50 (PC-3 [7]) is on record?
Its IC50 is 10 nM.

Which IC50 (DU-145) does the source give for COc1ccc(/C=C/C(=O)c2ccno2)c(F)c1OC here?
The IC50 was 5 µg/mL (≈ 18 µM).

Which IC50 (HepG2) does the source give for Cc1ccccc1COc1ccc(-c2noc(C)c2-c2ccc(Cl)cc2)cc1 here?
The IC50 was 770 nM.

For COc1ccc(-c2noc(-c3cccs3)c2C(F)(F)F)cc1OC, which IC50 (MCF7 [8]) is on record?
The IC50 was 2630 nM.

And the IC50 (4T1)?
The IC50 was 2630 nM.

What about the IC50 (PC-3 [9]) of the same compound?
The IC50 was 2630 nM.

Which IC50 (PC-3 [7]) does the source give for COc1ccc(-c2nnc(-c3cncc(-c4cc(-c5nccs5)on4)c3)o2)cc1 here?
The IC50 was 10 nM.

For COc1cc(NC(=O)c2cc(-c3c[nH]c4ccccc34)no2)cc(OC)c1OC, which IC50 (Huh-7) is on record?
The IC50 was 700 nM.

For COc1ccc(-c2noc(NC(=O)c3ccc(F)c(F)c3)c2C#N)c(OC)c1, which IC50 (Heat shock protein HSP90) is on record?
The IC50 was 14000 nM.

With c1csc(-c2cc(-c3cncc(-c4nnc(-c5nccs5)o4)c3)no2)n1 as the compound, how does the IC50 (PC-3 [7]) read?
Its IC50 is 10 nM.

Which IC50 (PC-3 [7]) does the source give for c1cc(-c2nnc(-c3cncc(-c4cc(-c5nccs5)on4)c3)o2)ccn1 here?
Its IC50 is 10 nM.

For CCCCCCCCCCc1cc(CCC(N)(CO)CO)on1, which IC50 [10] is on record?
Its IC50 is 7500 nM.

Which GI50 (PC-3 [11]) does the source give for COc1cccc2c1C(=O)c1c(O)c3c(c(O)c1C2=O)C[C@@](O)(C(=O)CO)C[C@@H]3O[C@H]1C[C@H](N)[C@H](O)[C@H](C)O1 [DOXORUBICIN HYDROCHLORIDE] here?
The GI50 was 1000 nM.

And the GI50 (MCF7 [12])?
Its GI50 is 1000 nM.

With c1cnoc1 [ISOXAZOLE] as the compound, how does the IC50 [10] read?
The IC50 was 10000 nM.
